According to US6964949B2, “Pharmaceutical compositions for promoting the growth of gram-positive bacilli and increasing the acidity in the vagina and the use thereof” (Shanghai Jiao Da Onlly Co., Ltd., priority 2000, dated 2005):

Assays:
Format in all cases: cell-based
Conditions in all cases: 1.0% yeast extract, pH 6.2, candle jar, 37° C.
Gram-negative bacilli = test: Experiment Example 2: comparison of saccharides, specimen culture, Gram smear
Excerpt: (§1) • (1)The preparation of the compositions: Different saccharides were used respectively to prepare the following compositions according to the methods mentioned above: glucose, fructose, galactose, mannose, maltose, sucrose, lactose, lactulose, mycose, cellobiose, melibiose, melitose, malto-oligosaccharide, isomaltooligosaccharide and fructooligosaccharide, dextrin, starch, and glycogen: • A. 5% glucose, 1.0% yeast extract, 1.6% xanthan gum, pH adjusted to 6.2; • B. 5% fructose, 1.0% yeast extract, 1.6% xanthan gum, pH adjusted to 6.2; • C. 5% galactose, 1.0% yeast extract, 1.6% xanthan gum, pH adjusted to 6.2; • D. 5% mannose, 1.0% yeast extract, 1.6% xanthan gum, pH adjusted to 6.2; • E. 10.0% maltose, 1.0% yeast extract, 1.6% xanthan gum, pH adjusted to 6.2; • F. 10.0% sucrose, 1.0% yeast extract, 1.6% xanthan gum, pH adjusted to 6.2; • G. 10.0% lactose, 1.0% yeast extract, 1.6% xanthan gum, pH adjusted to 6.2; • H. 10.0% lactulose, 1.0% yeast extract, 1.6% xanthan gum, pH adjusted to 6.2; • I. 10.0% cellobiose, 1.0% yeast extract, 1.6% xanthan gum, pH adjusted to 6.2; • J. 10.0% mycose, 1.0% yeast extract, 1.6% xanthan gum, pH adjusted to 6.2; • K. 10.0% melibiose, 1.0% yeast extract, 1.6% xanthan gum, pH adjusted to 6.2; • L. 10.0% melitose, 1.0% yeast extract, 1.6% xanthan gum, pH adjusted to 6.2; • M. 10.0% maltooligosaccharide, 1.0% yeast extract, 1.6% xanthan gum, pH adjusted to 6.2; • N. 10.0% isomaltooligosaccharide, 1.0% yeast extract, 1.6% xanthan gum, pH adjusted to 6.2; • O. 10.0% fructooligosaccharide, 1.0% yeast extract, 1.6% xanthan gum, pH adjusted to 6.2; • P. 10.0% dextrin, 1.0% yeast extract, 0.5% xanthan gum, pH adjusted to 6.2; • Q. 10.0% starch, 1.0% yeast extract, pH adjusted to 6.2; • R. 10.0% glycogen, 1.0% yeast extract, 1.6% xanthan gum, pH adjusted to 6.2. • (2)The preparation of the test tubes: The compositions prepared above were filled into test tubes, with each tube containing 5 ml, sterilized, and kept until use for experiment. • (3) Specimen suspension: Vaginal secretion was taken from one of the patients suffering from typical bacterial vagmosis with a cotton swab, then the swab was washed in 2 ml sterilized Trypcase-soy Broth immediately, and thus the specimen suspension was ready. […] Then the tubes were placed in a candle jar and cultivated at 37° C. After 24 hours and 48 hours' culture, culture samples were taken respectively from each of the tubes, then the Gram smears of the samples were observed and the pH values of culture samples were tested. […] Meanwhile the pH values in most of the composition tubes decreased to different levels. […] And maltose and sucrose exert better effect in promoting the growth of Gram-positive bacilli and the production of acids than that of the other kinds of oligosaccharides.

Gram-positive cocci = test: as above
Excerpt: as §1

Gram-positive bacilli = test: as above
Excerpt: as §1

Gram-negative cocci = test: as above
Excerpt: as §1

[1] = test system: vaginal secretion specimen of a patient suffering from typical bacterial vaginosis; test: Experiment Example 2: pH of culture samples (production of acids)
Excerpt: as §1

[2] = 10.0% saccharide, 1.6% xanthan gum (dextrin 0.5%, starch none)
[3] = 5% saccharide, 1.6% xanthan gum

Structure (SMILES) | Bacteria G − b (Gram-negative bacilli), 24 hours-culture (Gram-negative bacilli; [2]) | Bacteria G − b (Gram-negative bacilli), 48 hours-culture (Gram-negative bacilli; [2]) | Bacteria G + c (Gram-positive cocci), 24 hours-culture (Gram-positive cocci; [2]) | Bacteria G + c (Gram-positive cocci), 48 hours-culture (Gram-positive cocci; [2]) | Bacteria G + b (Gram-positive bacilli), 24 hours-culture (Gram-positive bacilli; [2]) | Bacteria G + b (Gram-positive bacilli), 48 hours-culture (Gram-positive bacilli; [2]) | Bacteria G − c (Gram-negative cocci), 24 hours-culture (Gram-negative cocci; [2]) | Bacteria G − c (Gram-negative cocci), 48 hours-culture (Gram-negative cocci; [2]) | pH, 24 hours-culture [1, 2] | pH, 48 hours-culture [1, 2] | Bacteria G − b (Gram-negative bacilli), 24 hours-culture (Gram-negative bacilli; [3]) | Bacteria G − b (Gram-negative bacilli), 48 hours-culture (Gram-negative bacilli; [3]) | Bacteria G + c (Gram-positive cocci), 24 hours-culture (Gram-positive cocci; [3]) | Bacteria G + c (Gram-positive cocci), 48 hours-culture (Gram-positive cocci; [3]) | Bacteria G + b (Gram-positive bacilli), 24 hours-culture (Gram-positive bacilli; [3]) | Bacteria G + b (Gram-positive bacilli), 48 hours-culture (Gram-positive bacilli; [3]) | Bacteria G − c (Gram-negative cocci), 24 hours-culture (Gram-negative cocci; [3]) | Bacteria G − c (Gram-negative cocci), 48 hours-culture (Gram-negative cocci; [3]) | pH, 24 hours-culture [1, 3] | pH, 48 hours-culture [1, 3]
OC[C@H]1O[C@@H](O[C@@H]2[C@@H](CO)OC(O)(CO)[C@H]2O)[C@H](O)[C@@H](O)[C@H]1O (mixture of isomers) [Lactulose, lactulose] | G − b, + (1-9 bacteria per field of vision under oil-immersion lens) | G − b, + (1-9 bacteria per field of vision under oil-immersion lens) | G + c, + (1-9 bacteria per field of vision under oil-immersion lens) | G + c, + (1-9 bacteria per field of vision under oil-immersion lens) | G + b, +++ (About 100 bacteria or more per field vision under oil-immersion lens, even uncountable) | G + b, ++ (About 10-99 bacteria per field of vision under oil-immersion lens) | G − c, − (No or less than one bacterium per field of version under oil-immersion lens) | G − c, − (No or less than one bacterium per field of version under oil-immersion lens) | 5.8-6.2 | 6.2 |  |  |  |  |  |  |  |  |  | 
OC[C@H]1O[C@H](OCC2O[C@@H](O)[C@H](O)[C@@H](O)[C@@H]2O)[C@H](O)[C@@H](O)[C@H]1O (stereo partly shown) [Melibiose, melibiose] | G − b, ++ (About 10-99 bacteria per field of vision under oil-immersion lens) | G − b, ++ (About 10-99 bacteria per field of vision under oil-immersion lens) | G + c, + (1-9 bacteria per field of vision under oil-immersion lens) | G + c, + (1-9 bacteria per field of vision under oil-immersion lens) | G + b, + (1-9 bacteria per field of vision under oil-immersion lens) | G + b, ++ (About 10-99 bacteria per field of vision under oil-immersion lens) | G − c, + (1-9 bacteria per field of vision under oil-immersion lens) | G − c, − (No or less than one bacterium per field of version under oil-immersion lens) | 6.2 | 5.8 |  |  |  |  |  |  |  |  |  | 
O=C(CO)[C@@H](O)[C@H](O)[C@H](O)CO [Fructose, fructose] |  |  |  |  |  |  |  |  |  |  | G − b, + (1-9 bacteria per field of vision under oil-immersion lens) | G − b, + (1-9 bacteria per field of vision under oil-immersion lens) | G + c, + (1-9 bacteria per field of vision under oil-immersion lens) | G + c, + (1-9 bacteria per field of vision under oil-immersion lens) | G + b, ++ (About 10-99 bacteria per field of vision under oil-immersion lens) | G + b, +++ (About 100 bacteria or more per field vision under oil-immersion lens, even uncountable) | G − c, − (No or less than one bacterium per field of version under oil-immersion lens) | G − c, − (No or less than one bacterium per field of version under oil-immersion lens) | 5.4-5.8 | 5.4-5.8
O=C[C@H](O)[C@@H](O)[C@H](O[C@@H]1O[C@H](CO)[C@@H](O)[C@H](O)[C@H]1O)[C@H](O)CO [Cellobiose, cellobiose] | G − b, + (1-9 bacteria per field of vision under oil-immersion lens) | G − b, + (1-9 bacteria per field of vision under oil-immersion lens) | G + c, + (1-9 bacteria per field of vision under oil-immersion lens) | G + c, + (1-9 bacteria per field of vision under oil-immersion lens) | G + b, ++ (About 10-99 bacteria per field of vision under oil-immersion lens) | G + b, ++ (About 10-99 bacteria per field of vision under oil-immersion lens) | G − c, − (No or less than one bacterium per field of version under oil-immersion lens) | G − c, − (No or less than one bacterium per field of version under oil-immersion lens) | 5.8 | 5.8 |  |  |  |  |  |  |  |  |  | 
OC[C@H]1O[C@H](OC[C@H]2O[C@H](O[C@]3(CO)O[C@H](CO)[C@@H](O)[C@@H]3O)[C@H](O)[C@@H](O)[C@@H]2O)[C@H](O)[C@@H](O)[C@H]1O [Melitose, melitose] | G − b, + (1-9 bacteria per field of vision under oil-immersion lens) | G − b, ++ (About 10-99 bacteria per field of vision under oil-immersion lens) | G + c, + (1-9 bacteria per field of vision under oil-immersion lens) | G + c, + (1-9 bacteria per field of vision under oil-immersion lens) | G + b, ++ (About 10-99 bacteria per field of vision under oil-immersion lens) | G + b, +++ (About 100 bacteria or more per field vision under oil-immersion lens, even uncountable) | G − c, + (1-9 bacteria per field of vision under oil-immersion lens) | G − c, − (No or less than one bacterium per field of version under oil-immersion lens) | 6.7 | 5.8 |  |  |  |  |  |  |  |  |  | 
OC[C@H]1O[C@@H](O[C@H]2[C@H](O)[C@@H](O)C(O)O[C@@H]2CO)[C@H](O)[C@@H](O)[C@H]1O (stereo partly shown) [Lactose, lactose] | G − b, + (1-9 bacteria per field of vision under oil-immersion lens) | G − b, + (1-9 bacteria per field of vision under oil-immersion lens) | G + c, +++ (About 100 bacteria or more per field vision under oil-immersion lens, even uncountable) | G + c, + (1-9 bacteria per field of vision under oil-immersion lens) | G + b, ++ (About 10-99 bacteria per field of vision under oil-immersion lens) | G + b, ++ (About 10-99 bacteria per field of vision under oil-immersion lens) | G − c, − (No or less than one bacterium per field of version under oil-immersion lens) | G − c, − (No or less than one bacterium per field of version under oil-immersion lens) | 5.8 | 5.1-5.4 |  |  |  |  |  |  |  |  |  | 
O=C[C@H](O)[C@@H](O)[C@@H](O)[C@H](O)CO [Galactose, galactose] |  |  |  |  |  |  |  |  |  |  | G − b, − (No or less than one bacterium per field of version under oil-immersion lens) | G − b, + (1-9 bacteria per field of vision under oil-immersion lens) | G + c, ++ (About 10-99 bacteria per field of vision under oil-immersion lens) | G + c, ++ (About 10-99 bacteria per field of vision under oil-immersion lens) | G + b, ++ (About 10-99 bacteria per field of vision under oil-immersion lens) | G + b, + (1-9 bacteria per field of vision under oil-immersion lens) | G − c, − (No or less than one bacterium per field of version under oil-immersion lens) | G − c, − (No or less than one bacterium per field of version under oil-immersion lens) | 6.7 | 6.7
